Measured values from ChEMBL document CHEMBL2069287, “Salidroside protects human erythrocytes against hydrogen peroxide-induced apoptosis” (J Nat Prod, 2012).
Calls of active or inactive are those of the source. No cut-off for these calls is given here.

What was measured:
Erythrocyte [1] = assay: Cytoprotective activity against H202-induced eryptosis in human erythrocytes assessed as viable cells at 100 uM after 24 hrs by PE-annexinV/calcein flow cytometric assay (reference value: 63.38%); type: functional; conditions: read-out: Activity
Erythrocyte [2] = assay: Cytoprotective activity against H202-induced eryptosis in human erythrocytes assessed as very early apoptotic cells at 100 uM after 24 hrs by PE-annexinV/calcein flow cytometric assay (reference value: 27.15%); type: functional
Erythrocyte [3] = assay: Cytoprotective activity in human erythrocytes assessed as decrease in ionomycin-induced cytosolic free calcium level at 100 uM after 24 hrs by Fluo4 staining-based assay (reference value: 1.76%); type: functional; design: scale not given: the % may be the effect or the level left
Erythrocyte [4] = assay: Cytoprotective activity against H202-induced eryptosis in human erythrocytes assessed as very early apoptotic cells at 300 uM after 24 hrs by PE-annexinV/calcein flow cytometric assay (reference value: 27.15%); type: functional
Erythrocyte [5] = assay: Cytoprotective activity in human erythrocytes assessed as protection against H202-induced hemolysis from 2 to 24 hrs by spectrophotometry; type: functional, cell-based
Erythrocyte [6] = assay: Cytoprotective activity against H202-induced eryptosis in human erythrocytes assessed as early apoptotic cells at 100 uM after 24 hrs by PE-annexinV/calcein flow cytometric assay (reference value: 9.34%); type: functional
[7] = Antioxidant activity in human erythrocytes assessed as decrease in H202-induced ROS production at 100 uM after 24 hrs by DCF-based flow cytometric analysis (reference value: 68.32%); type: functional, Erythrocyte; design: scale not given: the % may be the effect or the level left
[8] = Toxicity in human erythrocytes assessed as hemolysis up to 400 uM after 24 hrs by spectrophotometry; type: cell-based; conditions: erythrocyte
[9] = Induction of eryptosis in human erythrocytes assessed as very early apoptotic cells at 100 uM after 24 hrs by PE-annexinV/calcein flow cytometric assay (reference value: 0.2%); type: cell-based; conditions: erythrocyte
Erythrocyte [10] = assay: Cytoprotective activity against H202-induced eryptosis in human erythrocytes assessed as late apoptotic cells at 100 uM after 24 hrs by PE-annexinV/calcein flow cytometric assay (reference value: 0.13%); type: functional
Erythrocyte [11] = assay: Cytoprotective activity against H202-induced eryptosis in human erythrocytes assessed as late apoptotic cells at 300 uM after 24 hrs by PE-annexinV/calcein flow cytometric assay (reference value: 0.13%); type: functional
[12] = Induction of eryptosis in human erythrocytes assessed as viable cells at 100 uM after 24 hrs by PE-annexinV/calcein flow cytometric assay (reference value: 97.21%); type: cell-based, Erythrocyte; conditions: read-out: Activity
Erythrocyte [13] = assay: Cytoprotective activity in human erythrocytes assessed as decrease in caspase-3-mediated FAM-DEVD-FMK cleavage at 300 uM after 24 hrs by fluorometric assay (reference value: 0.28%); type: functional; design: scale not given: the % may be the effect or the level left
[14] = Toxicity in human erythrocytes assessed as hemolysis up to 800 uM after 2 hrs by spectrophotometry; type: cell-based; conditions: erythrocyte
Erythrocyte [15] = assay: Cytoprotective activity in human erythrocytes assessed as decrease in H202-induced caspase-3-mediated FAM-DEVD-FMK cleavage after 24 hrs by fluorometric assay; type: functional, cell-based
Erythrocyte [16] = assay: Cytoprotective activity in human erythrocytes assessed as decrease in STS-mediated caspase3 activation at 300 uM after 24 hrs by fluorimetric assay (reference value: 58.78%); type: functional; design: scale not given: the % may be the effect or the level left
Erythrocyte [17] = assay: Cytoprotective activity in human erythrocytes assessed as protection against H202-induced hemolysis at 50 to 100 uM from 2 to 24 hrs by spectrophotometry; type: functional, cell-based
Erythrocyte [18] = assay: Cytoprotective activity against H202-induced apoptosis in human erythrocytes assessed as decrease in cytosolic free calcium level after 24 hrs by PE-annexinV/Fluor4 flow cytometric analysis; type: functional, cell-based
Erythrocyte [19] = assay: Antioxidant activity in human erythrocytes assessed as decrease in H202-induced ROS production after 24 hrs by DCF-based flow cytometric analysis; type: functional, cell-based
Erythrocyte [20] = assay: Cytoprotective activity in human erythrocytes assessed as decrease in H202-induced caspase-3-mediated FAM-DEVD-FMK cleavage at 300 uM after 24 hrs by fluorometric assay (reference value: 51.22%); type: functional; design: scale not given: the % may be the effect or the level left
[21] = Induction of eryptosis in human erythrocytes assessed as viable cells at 300 uM after 24 hrs by PE-annexinV/calcein flow cytometric assay (reference value: 97.21%); type: cell-based, Erythrocyte; conditions: read-out: Activity
Erythrocyte [22] = assay: Cytoprotective activity in human erythrocytes assessed as decrease in H202-induced caspase-3-mediated FAM-DEVD-FMK cleavage at 100 uM after 24 hrs by fluorometric assay (reference value: 51.22%); type: functional; design: scale not given: the % may be the effect or the level left
[23] = Induction of eryptosis in human erythrocytes assessed as late apoptotic cells at 100 uM after 24 hrs by PE-annexinV/calcein flow cytometric assay (reference value: 0%); type: cell-based; conditions: erythrocyte
Erythrocyte [24] = assay: Cytoprotective activity against H202-induced apoptosis in human erythrocytes assessed as decrease in phosphatidylserine externalization after 24 hrs by PE-annexinV/Fluor4 flow cytometric analysis; type: functional, cell-based
Erythrocyte [25] = assay: Cytoprotective activity in human erythrocytes assessed as decrease in STS-mediated caspase3 activation at 100 uM after 24 hrs by fluorimetric assay (reference value: 58.78%); type: functional; design: scale not given: the % may be the effect or the level left
Erythrocyte [26] = assay: Cytoprotective activity against H202-induced eryptosis in human erythrocytes assessed as viable cells at 300 uM after 24 hrs by PE-annexinV/calcein flow cytometric assay (reference value: 63.38%); type: functional; conditions: read-out: Activity
Erythrocyte [27] = assay: Cytoprotective activity in human erythrocytes assessed as decrease in ionomycin-induced cytosolic free calcium level at 300 uM after 24 hrs by Fluo4 staining-based assay (reference value: 57.79%); type: functional; design: scale not given: the % may be the effect or the level left
[28] = Induction of eryptosis in human erythrocytes assessed as very early apoptotic cells at 300 uM after 24 hrs by PE-annexinV/calcein flow cytometric assay (reference value: 0.2%); type: cell-based; conditions: erythrocyte
[29] = Induction of eryptosis in human erythrocytes assessed as late apoptotic cells at 300 uM after 24 hrs by PE-annexinV/calcein flow cytometric assay (reference value: 0%); type: cell-based; conditions: erythrocyte
Erythrocyte [30] = assay: Cytoprotective activity against H202-induced eryptosis in human erythrocytes assessed as early apoptotic cells at 300 uM after 24 hrs by PE-annexinV/calcein flow cytometric assay (reference value: 9.34%); type: functional
[31] = Induction of eryptosis in human erythrocytes assessed as early apoptotic cells at 100 uM after 24 hrs by PE-annexinV/calcein flow cytometric assay (reference value: 2.59%); type: cell-based; conditions: erythrocyte
[32] = Induction of eryptosis in human erythrocytes assessed as early apoptotic cells at 300 uM after 24 hrs by PE-annexinV/calcein flow cytometric assay (reference value: 2.59%); type: cell-based; conditions: erythrocyte
[33] = Antioxidant activity in human erythrocytes assessed as decrease in H202-induced ROS production at 300 uM after 24 hrs by DCF-based flow cytometric analysis (reference value: 68.32%); type: functional, Erythrocyte; design: scale not given: the % may be the effect or the level left
Erythrocyte [34] = assay: Cytoprotective activity in human erythrocytes assessed as decrease in caspase-3-mediated FAM-DEVD-FMK cleavage at 100 uM after 24 hrs by fluorometric assay (reference value: 0.28%); type: functional; design: scale not given: the % may be the effect or the level left

In the case of `OC[C@H]1O[C@@H](OCCc2ccc(O)cc2)[C@H](O)[C@@H](O)[C@@H]1O` [SALIDROSIDE], the viability at 100 µM (Erythrocyte [1]) is reported as 70.4%, the Activity (Erythrocyte [2]) is reported as 17.01% and the Activity (Erythrocyte [3]) is reported as 48.77%. For the same compound, the Activity (Erythrocyte [4]) was 14.16%, the Activity (Erythrocyte [5]) was “Dose-dependent effect” and the Activity (Erythrocyte [6]) was 12.38%. For the same compound, the Activity [7] was 58.82%, the Activity [8] was “Non-toxic” and the Activity [9] was 0.14%. It also gave an Activity (Erythrocyte [10]) of 0.18%, an Activity (Erythrocyte [11]) of 0.11% and a viability at 24 h, 100 µM [12] of 97.5%. For the same compound, the Activity (Erythrocyte [13]) was 0.22%, the Activity [14] was “Non-toxic” and the Activity (Erythrocyte [15]) was “Dose-dependent effect”. For the same compound, the Activity (Erythrocyte [16]) was 47.16%, the Activity (Erythrocyte [17]) was “Active” and the Activity (Erythrocyte [18]) was “Dose-dependent effect”. The Activity (Erythrocyte [19]) was “Dose-dependent effect”, the Activity (Erythrocyte [20]) was 37.71% and the viability at 24 h, 300 µM [21] was 97.5%. For the same compound, the Activity (Erythrocyte [22]) was 42.12%, the Activity [23] was 0% and the Activity (Erythrocyte [24]) was “Dose-dependent effect”. For the same compound, the Activity (Erythrocyte [25]) was 49.38%, the viability at 300 µM (Erythrocyte [26]) was 74.7% and the Activity (Erythrocyte [27]) was 46.24%. For the same compound, the Activity [28] was 0.04%, the Activity [29] was 0% and the Activity (Erythrocyte [30]) was 11.08%. For the same compound, the Activity [31] was 2.38%, the Activity [32] was 2.46% and the Activity [33] was 51.39%. The Activity (Erythrocyte [34]) was 0.23%.
